Results reported in ChEMBL document CHEMBL1133081, “Design and synthesis of potent hexapeptide and heptapeptide gonadotropin-releasing hormone antagonists by truncation of a decapeptide analogue sequence” (J Med Chem, 2000).
pIC50: −log10 of the molar value.

Target: T1, Gonadotropin-releasing hormone receptor (Rattus norvegicus, UniProt P30969)
T1 sequence (P30969 whole entry): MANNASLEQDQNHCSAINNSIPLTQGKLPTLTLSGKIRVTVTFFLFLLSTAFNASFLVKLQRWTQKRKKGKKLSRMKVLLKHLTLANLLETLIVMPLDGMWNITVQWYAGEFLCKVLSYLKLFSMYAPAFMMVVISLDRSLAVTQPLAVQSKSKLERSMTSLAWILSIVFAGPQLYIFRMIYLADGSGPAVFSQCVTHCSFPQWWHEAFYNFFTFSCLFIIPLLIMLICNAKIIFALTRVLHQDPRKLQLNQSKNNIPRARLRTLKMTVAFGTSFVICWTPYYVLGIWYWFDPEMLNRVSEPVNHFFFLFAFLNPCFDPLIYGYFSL
Assay: Concentration of the peptide which displaces 50% of 125 I-[D-Lys6] gonadotropin-releasing hormone bound to rat pituitary membranes
Type: cell membranes, Membrane

Structure (SMILES) | pIC50
CC(=O)N[C@H](Cc1ccc2ccccc2c1)C(=O)N[C@H](Cc1ccc(Cl)cc1)C(=O)N[C@H](Cc1ccccn1)C(=O)N[C@@H](CC(C)C)C(=O)N[C@@H](CCCN=C(N)N)C(=O)N1CCC[C@H]1C(=O)N[C@H](C)C(N)=O | 7.09
CC(=O)N[C@@H](Cc1ccc2ccccc2c1)C(=O)N[C@H](Cc1ccc(Cl)cc1)C(=O)N[C@H](Cc1ccccn1)C(=O)N[C@H](CCCCN)C(=O)N1CCC[C@@H]1C(=O)N[C@@H](C)C(N)=O | 6.26
CC(=O)N[C@H](Cc1ccc2ccccc2c1)C(=O)N[C@H](Cc1ccc(Cl)cc1)C(=O)N[C@H](Cc1ccccn1)C(=O)N[C@H](CC(C)C)C(=O)N[C@@H](CCCNC(=N)N)C(=O)N1CCC[C@H]1C(=O)N[C@H](C)C(N)=O | 7.13
CC(=O)N[C@H](Cc1ccc2ccccc2c1)C(=O)N[C@H](Cc1ccccc1)C(=O)N[C@H](Cc1ccccc1)C(=O)NCC(=O)N[C@@H](CCCN=C(N)N)C(=O)N1CCC[C@H]1C(=O)N[C@H](C)C(N)=O | 7.55
CC(=O)N[C@H](Cc1ccc2ccccc2c1)C(=O)N[C@H](Cc1ccc(Cl)cc1)C(=O)N[C@H](Cc1ccccn1)C(=O)N[C@H](CCCNC(=N)N)C(=O)N1CCC[C@H]1C(=O)N[C@H](C)C(N)=O | 7.15
CC(=O)N[C@H](Cc1ccc2ccccc2c1)C(=O)N[C@H](Cc1ccc(Cl)cc1)C(=O)N[C@H](Cc1ccccn1)C(=O)NCC(=O)N1CCC[C@H]1C(=O)N[C@H](C)C(N)=O | 7.35
CC(=O)N[C@@H](Cc1ccc2ccccc2c1)C(=O)N[C@H](Cc1ccc(Cl)cc1)C(=O)N[C@H](Cc1ccccn1)C(=O)N[C@@H](Cc1ccc(O)cc1)C(=O)N[C@H](CCCN=C(N)N)C(=O)N1CCC[C@@H]1C(=O)N[C@@H](C)C(N)=O | 7.60
C[C@@H](NC(=O)[C@@H]1CCCN1C(=O)[C@H](CCCN=C(N)N)NC(=O)CNC(=O)[C@@H](Cc1ccccc1)NC(=O)[C@@H](Cc1ccccc1)NC(=O)[C@H](N)Cc1ccc2ccccc2c1)C(N)=O | 6.55
CC(=O)N[C@H](Cc1ccc2ccccc2c1)C(=O)N[C@H](Cc1ccc(Cl)cc1)C(=O)N[C@H](Cc1ccccn1)C(=O)N[C@H](C)C(=O)N[C@@H](CCCNC(N)=O)C(=O)N1CCC[C@H]1C(=O)N[C@H](C)C(N)=O | 7.64
CC(=O)N[C@H](Cc1ccc2ccccc2c1)C(=O)N[C@H](Cc1ccc(Cl)cc1)C(=O)N[C@H](Cc1ccccn1)C(=O)N[C@@H](CCCN=C(N)N)C(=O)N1CCC[C@H]1C(=O)N[C@H](C)C(N)=O | 6.89
CC(=O)N[C@H](Cc1ccc2ccccc2c1)C(=O)N[C@H](Cc1ccc(Cl)cc1)C(=O)N[C@H](Cc1ccccn1)C(=O)N[C@@H](C)C(=O)N[C@@H](CCCNC(=N)N)C(=O)N1CCC[C@H]1C(=O)N[C@H](C)C(N)=O | 7.55
CC(=O)N[C@H](Cc1ccc2ccccc2c1)C(=O)N[C@H](Cc1ccc(Cl)cc1)C(=O)N[C@H](Cc1ccccn1)C(=O)N[C@H](C)C(=O)N[C@@H](CCCCNC(C)C)C(=O)N1CCC[C@H]1C(=O)N[C@H](C)C(N)=O | 6.89

Next, values leading:

pIC50 | Structure (SMILES)
7.70 | CC(=O)N[C@H](Cc1ccc2ccccc2c1)C(=O)N[C@H](Cc1ccc(Cl)cc1)C(=O)N[C@H](Cc1ccccn1)C(=O)N[C@H](C)C(=O)N[C@@H](CCCCN)C(=O)N1CCC[C@H]1C(=O)N[C@H](C)C(N)=O
7.14 | CC(=O)N[C@H](Cc1ccc2ccccc2c1)C(=O)N[C@H](Cc1ccc(Cl)cc1)C(=O)N[C@H](Cc1ccccn1)C(=O)N[C@H](CCCN=C(N)N)C(=O)N[C@@H](CCCNC(N)=O)C(=O)N1CCC[C@H]1C(=O)N[C@H](C)C(N)=O
8.15 | CC(=O)N[C@H](Cc1ccc2ccccc2c1)C(=O)N[C@H](Cc1ccc(Cl)cc1)C(=O)N[C@H](Cc1ccccn1)C(=O)NCC(=O)N[C@@H](CCCN=C(N)N)C(=O)N1CCC[C@H]1C(=O)N[C@H](C)C(N)=O
7.77 | CC(=O)N[C@H](Cc1ccc2ccccc2c1)C(=O)N[C@H](Cc1ccc(Cl)cc1)C(=O)N[C@H](Cc1ccccn1)C(=O)N[C@H](C)C(=O)N[C@@H](CCCNC(=N)N)C(=O)N1CCC[C@H]1C(=O)N[C@H](C)C(N)=O
7.06 | CCCC[C@H](NC(=O)[C@@H](C)NC(=O)[C@@H](Cc1ccccn1)NC(=O)[C@@H](Cc1ccc(Cl)cc1)NC(=O)[C@@H](Cc1ccc2ccccc2c1)NC(C)=O)C(=O)N1CCC[C@H]1C(=O)N[C@H](C)C(N)=O
6.64 | CC(=O)N[C@H](Cc1ccccc1)C(=O)N[C@H](Cc1ccccc1)C(=O)N[C@H](Cc1ccccc1)C(=O)NCC(=O)N[C@@H](CCCNC(=N)N)C(=O)N1CCC[C@H]1C(=O)N[C@H](C)C(N)=O
7.51 | CC(=O)N[C@H](Cc1ccc2ccccc2c1)C(=O)N[C@H](Cc1ccc(Cl)cc1)C(=O)N[C@H](Cc1ccccn1)C(=O)N(C)CC(=O)N[C@@H](CCCNC(=N)N)C(=O)N1CCC[C@H]1C(=O)N[C@H](C)C(N)=O
7.38 | CC(=O)N[C@H](Cc1ccc2ccccc2c1)C(=O)N[C@H](Cc1ccc(Cl)cc1)C(=O)N[C@H](Cc1ccccn1)C(=O)NC1(C(=O)N[C@@H](CCCN=C(N)N)C(=O)N2CCC[C@H]2C(=O)N[C@H](C)C(N)=O)CCC1
6.85 | CC(=O)N[C@H](Cc1ccc2ccccc2c1)C(=O)N[C@H](Cc1ccc(Cl)cc1)C(=O)N[C@H](Cc1ccccn1)C(=O)Nc1ccccc1C(=O)N[C@@H](CCCNC(=N)N)C(=O)N1CCC[C@H]1C(=O)N[C@H](C)C(N)=O
6.43 | CC(=O)N[C@H](Cc1cccc2ccccc12)C(=O)N[C@H](Cc1ccccc1)C(=O)N[C@H](Cc1ccccc1)C(=O)NCC(=O)N[C@@H](CCCNC(=N)N)C(=O)N1CCC[C@H]1C(=O)N[C@H](C)C(N)=O
5.82 | CC(=O)N[C@H](Cc1ccc2ccccc2c1)C(=O)N[C@H](Cc1ccc(Cl)cc1)C(=O)N[C@H](Cc1ccccn1)C(=O)N[C@H](C)C(=O)N1CCC[C@H]1C(=O)N[C@H](C)C(N)=O
5.66 | C[C@@H](NC(=O)[C@@H]1CCCN1C(=O)[C@H](CCCNC(=N)N)NC(=O)CNC(=O)[C@@H](Cc1ccccc1)NC(=O)[C@@H](Cc1ccccc1)NC(=O)[C@@H](Cc1ccc2ccccc2c1)NC(=O)OCC1c2ccccc2-c2ccccc21)C(N)=O
7.80 | CC(=O)N[C@H](Cc1ccc2ccccc2c1)C(=O)N[C@H](Cc1ccc(Cl)cc1)C(=O)N[C@H](Cc1ccccn1)C(=O)NCC(=O)N[C@H](CCCNC(=N)N)C(=O)N1CCC[C@H]1C(=O)N[C@H](C)C(N)=O
7.42 | CC(=O)N[C@H](Cc1ccc2ccccc2c1)C(=O)N[C@H](Cc1ccc(Cl)cc1)C(=O)N[C@H](Cc1ccccn1)C(=O)NCCC(=O)N[C@@H](CCCNC(=N)N)C(=O)N1CCC[C@H]1C(=O)N[C@H](C)C(N)=O
6.35 | CC(=O)N[C@H](Cc1c[nH]c2ccccc12)C(=O)N[C@H](Cc1ccccc1)C(=O)N[C@H](Cc1ccccc1)C(=O)NCC(=O)N[C@@H](CCCN=C(N)N)C(=O)N1CCC[C@H]1C(=O)N[C@H](C)C(N)=O
7.85 | CC(=O)N[C@H](Cc1ccc2ccccc2c1)C(=O)N[C@H](Cc1ccc(Cl)cc1)C(=O)N[C@H](Cc1ccccn1)C(=O)N[C@H](C)C(=O)N[C@@H](CCCCNNC(=O)c1cccnc1)C(=O)N1CCC[C@H]1C(=O)N[C@H](C)C(N)=O
6.96 | CC(=O)N[C@H](Cc1ccc2ccccc2c1)C(=O)N[C@H](Cc1ccc(Cl)cc1)C(=O)N[C@H](Cc1cccnc1)C(=O)N1CCC[C@H]1C(=O)N[C@@H](CCCN=C(N)N)C(=O)N1CCC[C@H]1C(=O)N[C@H](C)C(N)=O
